Assay results published in ChEMBL document CHEMBL1201862, “PubChem BioAssay data set” (2004).
The source made the active and inactive calls.

What was measured:
[1] = target: Heat shock protein HSP 90-alpha (Homo sapiens, UniProt P07900); assay type: functional, organism-based
[2] = target: Large T antigen (Simian virus 40, UniProt P03070); assay type: functional, Betapolyomavirus macacae;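 further: Confirmatory-stage PubChem screen for compounds that inhibit SV40 T antigen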
[3] = A549 cell cytotoxicity, dose response, cytotoxicity control, plate reader, cherry-pick, antagonist series (AID 743412); assay type: functional, cell-based
[4] = HEK293 cell cytotoxicity, dose response, cytotoxicity control, plate reader, cherry-picked samples (AID 743446); assay type: functional, cell-based
[5] = MC4R antagonists, dose response, counter-screen for LGR2 antagonist project, cell-based, plate reader, cherry pick (AID 743444); assay type: functional;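 further: transfected HEK 293 cells stimulated with alpha-MSH peptide; potency of inhibitors of the alpha-MSH evoked signal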
[6] = HepG2 cell cytotoxicity, dose response, cytotoxicity control, plate reader, cherry-pick, antagonist series (AID 743416); assay type: functional, cell-based
[7] = target: Glyceraldehyde-3-phosphate dehydrogenase (Homo sapiens, UniProt P04406)
Glyceraldehyde-3-phosphate dehydrogenase, sequence (P04406 whole entry): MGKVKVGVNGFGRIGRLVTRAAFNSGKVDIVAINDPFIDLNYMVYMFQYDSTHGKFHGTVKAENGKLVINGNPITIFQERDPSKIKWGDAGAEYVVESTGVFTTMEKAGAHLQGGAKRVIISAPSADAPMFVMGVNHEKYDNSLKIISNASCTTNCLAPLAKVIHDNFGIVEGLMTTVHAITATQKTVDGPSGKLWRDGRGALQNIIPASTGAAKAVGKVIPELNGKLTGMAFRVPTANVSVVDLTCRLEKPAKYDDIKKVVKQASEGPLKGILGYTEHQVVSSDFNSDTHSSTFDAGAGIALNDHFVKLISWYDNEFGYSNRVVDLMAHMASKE

[8] = target: T1, Replicative DNA helicase DnaB (Mycobacterium tuberculosis, UniProt P9WMR3); test: DnaB intein splicing inhibitors, dose response, biochemical, cell-free fluorescence (AID 449749); assay type: functional
T1 sequence (P9WMR3 whole entry): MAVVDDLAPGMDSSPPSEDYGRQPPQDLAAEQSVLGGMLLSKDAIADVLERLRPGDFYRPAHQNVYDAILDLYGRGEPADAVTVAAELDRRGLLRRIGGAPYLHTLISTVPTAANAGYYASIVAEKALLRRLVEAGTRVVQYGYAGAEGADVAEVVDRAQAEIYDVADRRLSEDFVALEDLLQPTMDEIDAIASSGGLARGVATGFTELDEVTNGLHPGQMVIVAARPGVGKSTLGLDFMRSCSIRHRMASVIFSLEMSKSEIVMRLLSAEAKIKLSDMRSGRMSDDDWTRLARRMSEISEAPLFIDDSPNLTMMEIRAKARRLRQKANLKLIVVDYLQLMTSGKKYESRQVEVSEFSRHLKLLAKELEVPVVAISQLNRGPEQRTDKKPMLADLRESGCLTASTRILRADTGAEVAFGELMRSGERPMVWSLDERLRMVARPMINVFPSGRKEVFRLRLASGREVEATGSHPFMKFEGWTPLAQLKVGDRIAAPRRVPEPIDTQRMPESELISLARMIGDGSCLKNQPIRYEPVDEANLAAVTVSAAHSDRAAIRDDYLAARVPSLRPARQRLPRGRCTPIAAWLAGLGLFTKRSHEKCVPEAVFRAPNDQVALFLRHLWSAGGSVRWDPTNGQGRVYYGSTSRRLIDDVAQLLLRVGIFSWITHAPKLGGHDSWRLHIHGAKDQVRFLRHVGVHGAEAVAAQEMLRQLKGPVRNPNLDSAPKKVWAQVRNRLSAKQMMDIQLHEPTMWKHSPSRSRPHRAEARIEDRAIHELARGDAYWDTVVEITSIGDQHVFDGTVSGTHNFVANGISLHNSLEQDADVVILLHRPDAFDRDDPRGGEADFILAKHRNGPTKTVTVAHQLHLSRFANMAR

[9] = target: T2, Protein RecA (Mycobacterium tuberculosis, UniProt P9WHJ3); test: Fluorescence Cell-Free Homogeneous Dose Retest to Identify Inhibitors of RecA-Intein Splicing Activity. [Related pubchem assays (depositor defined):AID2097, AID2223, AID489010, AID492950]; assay type: functional
T2 sequence (P9WHJ3 whole entry): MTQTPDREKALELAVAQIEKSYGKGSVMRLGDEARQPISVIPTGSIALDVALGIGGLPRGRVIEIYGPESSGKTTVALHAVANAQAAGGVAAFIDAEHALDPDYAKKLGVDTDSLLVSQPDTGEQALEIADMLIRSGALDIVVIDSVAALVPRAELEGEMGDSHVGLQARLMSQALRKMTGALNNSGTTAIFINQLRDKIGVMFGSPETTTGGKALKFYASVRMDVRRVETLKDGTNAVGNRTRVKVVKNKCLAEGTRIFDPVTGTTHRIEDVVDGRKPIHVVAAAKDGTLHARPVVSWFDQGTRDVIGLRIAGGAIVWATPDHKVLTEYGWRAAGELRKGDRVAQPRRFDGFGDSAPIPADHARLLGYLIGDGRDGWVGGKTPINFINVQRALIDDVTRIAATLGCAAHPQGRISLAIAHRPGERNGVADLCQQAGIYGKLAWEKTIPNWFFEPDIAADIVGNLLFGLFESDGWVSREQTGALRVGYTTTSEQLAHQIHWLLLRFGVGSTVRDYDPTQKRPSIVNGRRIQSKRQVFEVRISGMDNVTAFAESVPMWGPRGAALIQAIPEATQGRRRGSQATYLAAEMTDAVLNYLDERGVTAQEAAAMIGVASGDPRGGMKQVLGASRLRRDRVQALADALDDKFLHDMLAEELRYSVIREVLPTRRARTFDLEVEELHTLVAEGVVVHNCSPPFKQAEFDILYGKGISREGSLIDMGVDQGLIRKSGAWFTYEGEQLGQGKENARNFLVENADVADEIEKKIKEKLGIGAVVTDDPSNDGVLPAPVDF

[10] = target: Genome polyprotein (dengue virus type 2, UniProt P29990); test: Dengue-2 NS5 methyltransferase inhibitors, primary screen, biochemical, confirmation dose response (AID 588689); assay type: functional
Genome polyprotein, sequence (P29990 2492-3391 limits assumed): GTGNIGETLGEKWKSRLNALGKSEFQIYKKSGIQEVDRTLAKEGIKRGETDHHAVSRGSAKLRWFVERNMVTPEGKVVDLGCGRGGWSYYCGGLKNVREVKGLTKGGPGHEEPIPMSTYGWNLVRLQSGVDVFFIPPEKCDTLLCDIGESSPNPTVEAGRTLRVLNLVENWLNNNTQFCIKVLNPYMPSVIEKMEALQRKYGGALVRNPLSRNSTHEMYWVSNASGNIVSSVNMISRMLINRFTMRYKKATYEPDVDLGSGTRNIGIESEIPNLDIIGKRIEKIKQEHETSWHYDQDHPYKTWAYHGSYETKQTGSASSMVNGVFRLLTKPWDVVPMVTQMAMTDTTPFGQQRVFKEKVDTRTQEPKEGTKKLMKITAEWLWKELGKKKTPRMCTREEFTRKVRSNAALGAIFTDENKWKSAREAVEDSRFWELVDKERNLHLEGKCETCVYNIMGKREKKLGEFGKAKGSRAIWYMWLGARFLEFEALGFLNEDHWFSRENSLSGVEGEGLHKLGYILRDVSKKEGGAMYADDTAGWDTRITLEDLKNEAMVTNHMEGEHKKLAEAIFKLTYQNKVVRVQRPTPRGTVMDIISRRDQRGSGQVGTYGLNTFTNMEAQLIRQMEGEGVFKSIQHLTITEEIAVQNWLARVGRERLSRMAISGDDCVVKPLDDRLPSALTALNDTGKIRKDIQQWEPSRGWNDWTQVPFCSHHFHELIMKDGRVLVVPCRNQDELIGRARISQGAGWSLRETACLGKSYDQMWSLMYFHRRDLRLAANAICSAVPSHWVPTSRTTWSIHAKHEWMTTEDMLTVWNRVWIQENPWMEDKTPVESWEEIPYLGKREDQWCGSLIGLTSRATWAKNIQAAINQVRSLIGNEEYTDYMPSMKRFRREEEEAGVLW

[11] = cytotoxicity toward NIH3T3 fibroblasts, dose response, counter-screen, cell-based, ATP luminescence, mouse fibroblasts (AID 2010); assay type: functional;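 further: cells exposed to compound for about 90 hours before reading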
[12] = cells; assay type: functional, cell-based
[13] = cells; assay type: functional, cell-based; remark: listed apart in the source
[14] = inhibitors of intracellular T. cruzi replication, confirmation, NIH3T3 host cells, beta-gal luminescence (AID 2044); assay type: functional, cell-based;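 further: intracellular parasites grown in NIH/3T3 mouse fibroblasts as host cells; luminescent beta-galactosidase reporter signal from transgenic T. cruzi replicating inside host cells; inhibitors lower the luminescence signal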
[15] = target: T3, Trace amine-associated receptor 1 (Homo sapiens, UniProt Q96RJ0); test: Counterscreen for agonists of the human trace amine associated receptor 1 (hTAAR1): Fluorescence-based cell-based high throughput dose response assay to identify hTAAR1 agonist that also desensitize TAAR1 receptor response.; assay type: functional
T3 sequence (Q96RJ0 whole entry): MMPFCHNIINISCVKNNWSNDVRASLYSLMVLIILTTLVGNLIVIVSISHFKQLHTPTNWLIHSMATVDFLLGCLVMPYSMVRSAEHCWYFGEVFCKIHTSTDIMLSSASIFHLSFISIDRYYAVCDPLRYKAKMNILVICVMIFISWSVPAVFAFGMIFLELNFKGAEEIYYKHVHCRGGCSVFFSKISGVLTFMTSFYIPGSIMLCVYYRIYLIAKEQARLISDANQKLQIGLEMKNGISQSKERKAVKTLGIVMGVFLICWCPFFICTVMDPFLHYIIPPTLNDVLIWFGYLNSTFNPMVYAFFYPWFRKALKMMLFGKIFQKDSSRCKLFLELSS

[16] = microbe, parasite or virus in culture; assay type: functional; settings: Mycobacterium tuberculosis
[17] = target: T3, Trace amine-associated receptor 1; test: Fluorescence-based cell-based high throughput dose response assay to identify agonists of the human trace amine associated receptor 1 (TAAR1).; assay type: functional
[18] = target: T4, Oxysterols receptor LXR-beta (Homo sapiens, UniProt P55055); assay type: functional, cell-based;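 further: agonist activity at LXR measured by a cell-based luminescence readout across a dose range, run as a counterscreen for daf-12 agonists; HEK293 cells with Gal4-LXR fusion and GAL4-driven luciferase reporter; potency for activation of Gal4-LXR reporter so compounds are agonists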
T4 sequence (P55055 whole entry): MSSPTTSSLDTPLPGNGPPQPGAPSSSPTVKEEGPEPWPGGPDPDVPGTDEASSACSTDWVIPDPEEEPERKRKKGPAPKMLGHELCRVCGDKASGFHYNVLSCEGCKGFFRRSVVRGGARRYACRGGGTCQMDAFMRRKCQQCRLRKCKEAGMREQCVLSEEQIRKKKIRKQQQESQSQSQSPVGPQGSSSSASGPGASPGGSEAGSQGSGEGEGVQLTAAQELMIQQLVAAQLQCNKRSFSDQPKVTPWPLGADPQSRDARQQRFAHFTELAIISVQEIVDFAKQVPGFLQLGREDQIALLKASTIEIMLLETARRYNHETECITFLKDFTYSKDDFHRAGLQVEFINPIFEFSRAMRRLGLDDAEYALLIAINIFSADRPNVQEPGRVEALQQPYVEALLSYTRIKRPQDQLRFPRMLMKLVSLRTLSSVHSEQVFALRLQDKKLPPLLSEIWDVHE

[19] = target: T5, RNA-binding protein pos-1 (Caenorhabditis elegans, UniProt G5EF15); test: inhibitors of POS-1/mex-3 RNA binding, dose response, biochemical, fluorescence polarization (AID 1964);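 further: purified POS-1 fused to maltose binding protein made in E. coli; potency of compounds blocking POS-1 binding to fluorescent RNA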
T5 sequence (G5EF15 whole entry): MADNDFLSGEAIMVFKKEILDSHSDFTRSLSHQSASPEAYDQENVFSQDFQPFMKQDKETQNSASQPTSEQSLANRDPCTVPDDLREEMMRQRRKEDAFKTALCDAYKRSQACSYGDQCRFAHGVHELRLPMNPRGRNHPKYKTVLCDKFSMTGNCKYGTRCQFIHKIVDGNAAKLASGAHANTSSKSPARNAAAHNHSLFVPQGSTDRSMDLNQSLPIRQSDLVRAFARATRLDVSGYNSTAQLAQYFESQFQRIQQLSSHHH

[20] = target: T6, Zinc finger protein mex-5 (Caenorhabditis elegans, UniProt Q9XUB2); test: MEX-5/TCR-2 RNA interaction inhibitors, dose response, biochemical, C. elegans, fluorescence polarization (AID 1960)
T6 sequence (Q9XUB2 whole entry): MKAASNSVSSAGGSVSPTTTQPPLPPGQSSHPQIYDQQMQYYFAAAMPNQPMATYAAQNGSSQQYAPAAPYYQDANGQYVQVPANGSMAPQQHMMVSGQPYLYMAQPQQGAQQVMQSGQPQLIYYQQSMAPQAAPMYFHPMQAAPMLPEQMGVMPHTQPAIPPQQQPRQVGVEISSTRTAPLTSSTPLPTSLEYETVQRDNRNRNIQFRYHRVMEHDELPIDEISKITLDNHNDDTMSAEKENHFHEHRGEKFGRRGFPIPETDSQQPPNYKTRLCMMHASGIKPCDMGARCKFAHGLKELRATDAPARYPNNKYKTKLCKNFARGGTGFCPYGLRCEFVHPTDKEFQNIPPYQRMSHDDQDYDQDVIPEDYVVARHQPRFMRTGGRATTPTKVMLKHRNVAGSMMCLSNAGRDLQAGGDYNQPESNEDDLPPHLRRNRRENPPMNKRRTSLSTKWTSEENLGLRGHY

Large T antigen, sequence (P03070 whole entry): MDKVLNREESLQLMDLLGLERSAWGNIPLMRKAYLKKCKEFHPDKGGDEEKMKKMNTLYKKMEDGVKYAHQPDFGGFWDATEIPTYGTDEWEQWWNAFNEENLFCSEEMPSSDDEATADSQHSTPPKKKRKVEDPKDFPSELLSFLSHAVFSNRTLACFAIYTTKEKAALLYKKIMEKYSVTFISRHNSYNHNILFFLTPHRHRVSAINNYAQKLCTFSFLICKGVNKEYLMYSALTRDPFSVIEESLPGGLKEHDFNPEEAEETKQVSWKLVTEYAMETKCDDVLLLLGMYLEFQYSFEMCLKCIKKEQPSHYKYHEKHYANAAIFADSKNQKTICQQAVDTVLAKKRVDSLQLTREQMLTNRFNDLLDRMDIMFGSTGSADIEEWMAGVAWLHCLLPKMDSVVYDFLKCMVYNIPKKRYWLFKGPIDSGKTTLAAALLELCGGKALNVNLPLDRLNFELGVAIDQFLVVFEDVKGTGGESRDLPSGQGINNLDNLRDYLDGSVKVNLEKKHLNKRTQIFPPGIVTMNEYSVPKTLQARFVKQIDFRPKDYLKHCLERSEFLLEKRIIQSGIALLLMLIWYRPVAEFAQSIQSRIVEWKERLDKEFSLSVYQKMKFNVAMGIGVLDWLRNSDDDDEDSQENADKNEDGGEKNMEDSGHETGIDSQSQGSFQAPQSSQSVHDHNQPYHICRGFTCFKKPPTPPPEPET

With CC[C@H](C)/C=C/C1=CC2=C(Cl)C(=O)[C@@]3(C)OC(=O)C(C(=O)[C@H](C)[C@@H](C)O)=C3C2=CO1 the AC50 [1] was 7.41 µM (active) and the IC50 [2] was 44 µM (active).
With CC1CCN(C(=O)c2ccc(S(=O)(=O)Cc3cc(F)ccc3F)c([N+](=O)[O-])c2)CC1 the AC50 [3] was 25.4 µM (active), the AC50 [4] was 31.7 µM (active) and the AC50 [5] was 53.6 µM (active). The AC50 [6] was > 52 µM (inactive).
With O=C1CC(N2CCC(c3nc4ccccc4o3)CC2)C(=O)N1c1ccc(Cl)c(C(F)(F)F)c1 (configuration not stated) the AC50 [1] was 2.08 µM (active).
With Cc1cccc(N2C(=O)C(Cl)=C(N3CCOCC3)C2=O)c1 the IC50 [7] was > 50 µM (inconclusive), the AC50 [8] was 6.69 µM (active) and the EC50 [9] was 1.9 µM (active). The IC50 [10] was 34.5 µM (active).
In the case of OC(COC(c1ccc(Cl)cc1)c1ccc(Cl)cc1)CN1CCc2ccccc2C1 (configuration not stated), the EC50 [11] is reported as > 60 µM (inconclusive), the EC50 [12] is reported as > 29.9 µM (inactive) and the IC50 [13] is reported as 12.1 µM (inactive). For the same molecule, the AC50 [8] was 2.26 µM (active), the EC50 [9] was 81.5 µM (active) and the EC50 [14] was 2.16 µM (active). For the same molecule, the IC50 [15] was 9.26 µM (active), the CC50 [16] was 34.7 µM (active) and the EC50 [17] was 2.13 µM (active).
With Cc1cnc(NC(=O)COc2ccc3c(c2)CCC3)s1 the EC50 [18] was > 67.6 µM (inactive).
For O=C(O)C1C2CCC(C2)C1C(=O)NCCC1=CCCCC1 (configuration not stated), the EC50 [12] was > 29.9 µM (inactive), the IC50 [13] was > 29.9 µM (inactive) and the IC50 [15] was > 29.9 µM (inactive). The EC50 [17] was 6.32 µM (active).
For COc1cccc(NC(=N)N)c1, the EC50 [12] was > 29.9 µM (inactive), the IC50 [13] was > 29.9 µM (inactive) and the IC50 [15] was 5.04 µM (active). The EC50 [17] was 1.87 µM (active).
For COCCN1C(=O)/C(=C/c2c(OC)cc(OC)cc2OC)C(=O)N(c2ccccc2)C1=O, the EC50 [19] was 131 µM (active) and the EC50 [20] was > 300 µM (not active).
For COc1cccc(N2C(=O)C(Cl)=C(N3CCN(c4ccccc4)CC3)C2=O)c1, the IC50 [7] was > 50 µM (inconclusive).
